The text below walks through data of EP0025528A1, “1-(2-Acetylphenylthio)-3-alkylamino-2-propanols and their acid-addition salts, process for their preparation and medicines containing them” (A. Nattermann & Cie. GmbH, priority 1979, dated 1981).

As usually defined, the ED50 is the midpoint of the dose-response relation. As a reminder, the LD50 is the dose expected to kill half of the subjects tested. A lower LD50 goes with a more toxic substance.

Like-named read-outs stand apart in the source and are kept apart here.

The test system of one data set is Reserpinisierte Ratte. Briefly: Intrinsic sympathomimetic activity (ISA) in reserpinised anaesthetised rat. The data set is classed as in vivo, Wistar-Ratten. The following applies: intravenous; maximal heart-rate increase (mean of 6 animals) relative to 1,0 µg Isoprenalin/kg i.v.; reserpine 5 mg/kg i.p. 24 h before. The method, then: Die Tiere bekamen 24 Stunden vor Versuchsbeginn 5 mg Reserpin/kg intraperitoneal. Die Herzfrequenz wurde aus der Blutdruckamplitude (Polyäthylenkatheter mit aufgesetztem Stathamelement in der rechten Arteria femoralis) mit Hilfe eines Kardiotachometers abgenommen und auf einem Schreiber fortlaufend registriert. Die Applikation der Testlösungen erfolgte über einen Katheter in der linken Vena femoralis. Es wurden von jeder Testverbindung vier ansteigende Dosen getrennt jeweils an sechs verschiedenen Tieren geprüft.
Die maximale Steigerung der Herzfrequenz (Mittelwert aus 6 Tieren) durch die einzelnen Testverbindungen wurde als Maß für ihre agonistische Aktivität genommen und in Prozent der Frequenzsteigerung durch 1,0 µg Isoprenalin/kg Körpergewicht i.v. errechnet.

A further data set deals with Narkotisierte Katze. Briefly: Anaesthetised cat: inhibition of isoprenaline-induced tachycardia (competitive ß-adrenergic antagonism in vivo). Set-up: species or system Katzen. The following applies: Felis catus, read-out: ED50 Hemmung der Isoprenalin-induzierten Herzfrequenzsteigerung. The source says: Zum Nachweis des kompetitiven ß-adrenergischen Antagonismus in vivo wurden mischrassige Katzen beiderlei Geschlechts und in Chloralose-Pentobarbitalnarkose verwendet. […] Die Registrierung erfolgte über ein Stathamelement aus einem Beckman Dynograph Typ R. Aus der Blutdruckamplitude wurde mit Hilfe eines Kardiotachometers die Herzfrequenz abgenommen und auf einem weiteren Kanal des Dynographen aufgezeichnet. Die Applikation der Testlösungen erfolgte über einen Katheter in die linke Vena femoralis. Es wurde die inhibierende Wirkung ansteigender Testsubstanz-Dosen auf die durch i.v.Gabe von 0,5 gg Isoprenalin/kg Körpergewicht induzierte Tachykardie bzw. Hypotonie (Blutdrucksenkung) geprüft. Als ED50-Werte wurden in der Tabelle die Dosen der Referenz- bzw. erfindungsgemäßen Verbindung eingetragen, die die Isoprenalineffekte jeweils auf die Hälfte reduzierten.

Another data set can be described thus: in vivo. The following applies: for LD50 at 168 h: mouse. The source says: Die akute Toxizität wurde an NMRI-Mäusen durch intravenöse bzw. orale Gabe von steigenden Dosen der erfindungsgemäßen Verbindung ermittelt.
[1] abbreviates: intravenous, cat under chloralose-pentobarbital anaesthesia, isoprenaline 0,5 gg/kg i.v., dose halving the isoprenaline effect.

In the case of `CC(=O)c1ccccc1SCC(O)CNC(C)(C)C` (racemic) [Beispiel 1, 1-(2-Acetylphenylthio)-3-tert.-butyl-amino-2-propanol], the “ß-sympathomimetische Eigenaktivität (ISA) in % der sympathomimetischen Aktivität von Isoprenalin” value in the data set on Reserpinisierte Ratte was determined as 33%. Besides, the ED50 with Narkotisierte Katze (setting [1]) turned out to be 0.044 mg/kg. Besides, in “in vivo” (iv), the selectivity ratio was 2520 and the LD50 at 168 h was 111 mg/kg. The molecule also had a 50% lethal dose (LD50) at 168 h in “in vivo” (po) of 667 mg/kg.
For `CC(=O)Nc1ccc(OCC(O)CNC(C)C)cc1` (centres unmarked) [Practolol], the “ß-sympathomimetische Eigenaktivität (ISA) in % der sympathomimetischen Aktivität von Isoprenalin” value in the data set with Reserpinisierte Ratte turned out to be 54%. In the data set with Narkotisierte Katze (setting [1]), the ED50 came to 0.144 mg/kg. In the data set “in vivo” (iv), the selectivity ratio amounted to 1030 and the LD50 at 168 h worked out at 148 mg/kg.
On to `CC(C)NCC(O)COc1cccc2ccccc12` (centres unmarked) [Propranolol], for which the “ß-sympathomimetische Eigenaktivität (ISA) in % der sympathomimetischen Aktivität von Isoprenalin” value in the data set with Reserpinisierte Ratte was 0%. The median effective dose (ED50) in the data set on Narkotisierte Katze (iv) was 0.017 mg/kg.
